Test results published in patent publication US5470849A, “γ-turn peptidomimetics as fibrinogen antagonists” (SmithKline Beecham Corp., priority 1993, dated 1995).

Columns and labels:
[1] = Stability of the peptide to plasma proteases in platelet-rich plasma (3 h incubation prior to agonist); format: in vitro ADME, dog; details: up to 3 h
Method: (§1) Blood was collected (citrated to prevent coagulation) from, naive, adult mongrel dogs. Platelet rich plasma, PRP, was prepared by centrifugation at 150×g for 10 min at room temperature. Washed platelets were prepared by centrifuging PRP at 800×g for 10 min. The cell pellet thus obtained was washed twice in Tyrode's buffer (pH 6.5) without Ca^++ and resuspended in Tyrode's buffer (pH 7.4) containing 1.8 mM Ca^++ at 3×10^5 cells/mL. Peptides were added 3 min. prior to the agonist in all assays of platelet aggregation. Final agonist concentrations were 0.1 unit/mL thrombin and […] (Sigma). Aggregation was monitored in a Chrono-Log Lumi-Aggregometer. Light transmittance 5 min after addition of the agonist was used to calculate percent aggregation according to the formula % aggregation =[(90-CR)[…]]×100, where CR is the chart reading, 90 is the baseline, and 10 is the PRP blank reading. IC50 's were determined by plotting [% inhibition of aggregation] vs. [concentration of peptide]. Peptides were assayed at 200 μM and diluted sequentially by a factor of 2 to establish a suitable dose response curve.
To assess the stability of the peptide to plasma proteases, the peptides were incubated for 3 h (rather than 3 min) in the PRP prior to addition of the agonist.

[2] = test system: dog platelets; assay: Inhibition of platelet aggregation (dog platelets, agonist-induced, Chrono-Log Lumi-Aggregometer); format: cell-based; details: Canis lupus familiaris, stimulated by ADP, between about
Method: as §1

Row | SMILES | stability in platelet-rich plasma [1] | IC50 [2] [nM]
1 | CC(=O)N(C)[C@@H](CCCNC(=N)N)C(=O)NCC1=CC(CC(=O)O)C(=O)N(c2ccccc2)CC1 (stereo partly shown) [Example 2, 1-phenyl-2-oxo-3-carboxymethyl-5-[acetyl-(N-methylarginyl)-aminomethyl]-2,3,6,7-tetrahydro-1H-azepine] | stable in platelet-rich plasma for up to 3 h | 500 to 1500
2 | CN(C(=O)c1ccccc1)[C@@H](CCCNC(=N)N)C(=O)NCC1=CC(CC(=O)O)C(=O)N(c2ccccc2)CC1 (stereo partly shown) [Example 1, 1-phenyl-2-oxo-3-carboxymethyl-5-[(N-benzoyl-N-methyl-arginylamino)methyl]-2,3,6,7-tetrahydro-1H-azepine] | stable in platelet-rich plasma for up to 3 h | 500 to 1500
